The subject of this assay is NF-κB mediated transcription. Briefly: NF-κB driven β-lactamase reporter assay in ECV-304 NF-κB.βlaZ cells (AURORA CCF2 fluorescence). It is filed as cell-based, human. The following applies: Homo sapiens, 10 μM compound, ECV-304 NF-κB.βlaZ cells stimulated with 10 ng/mL TNF-α or 100 pg/mL IL-1β, 6 hours at 37° C., inhibition of maximum blue/green ratio, read-out: Percent Inhibition at 10 μM. From the text: Introduction: Described below is an in vitro, cell-based, high throughput screening assay that reliably identifies inhibitors of NF-κB mediated transcription.
The assay takes advantage of AURORA (Aurora Bioscience Corporation, La Jolla, Calif.) fluorescence technology. Endothelial cell vein-304 (ECV-304) cells, an endothelial-like immortalized cell type, may be stably transfected with a plasmid vector containing the cDNA for the enzyme β-lactamase (under the control of a basal promoter, Stratagene pNFκB-luc vector) and 5 copies of an human immunodeficiency virus-1 (HIV-1) NF-κB binding site. ECV-304 cells are described by Takahashi K. et al. in Spontaneous Transformation and Immobilization of Human Endothelial Cells, In Vitro Cell. Dev. Biol. 1990;25:265-274. Activation of NF-κB in ECV-304 by cytokines such as TNF-α or interleuken-1 beta (IL-1β) results in the production of β-lactamase, which cleaves a green fluorescent substrate (excitation/emission wavelengths 395 nm1530 nm) to yield a blue fluorescent product (excitation/emission wavelengths 395 nm/460 nm). Visually, the uncleaved green fluorescent substrate is sequestered intracellularly and emits green fluorescence, while the cleaved product emits blue fluorescence. Fluorescence is quantitated spectrophotometrically, and the spectral intensity of blue fluorescence versus green fluorescence can be used to calculate the degree of activation of NF-κB.
The assay was performed as outlined here and described in detail below. ECV-304 cells permanently transfected with the NF-κB driven β-lactamase gene (ECV-304 NF-κB.βlaZ) were plated in clear-bottom, black 96-well plates (1.25×10^4 cells/well) in media-199 (M-199) media containing 2% fetal bovine serum (FBS). […] The AURORA fluorescent disclosing reagent was then added. After one additional hour, the plates were read in a fluorometer at the blue 395 nm/460 nm (excitation/emission) and green 395 nm/530 nm wavelengths. Then the blue/green emission ratio was calculated. […] An IC50 for said sulfonylaminocarbonyl derivative was determined from a dose-response curve. This assay was designed to be optionally run in either high or low throughput screening modes.
Five copies of the HIV-1 NF-κB binding site (5′-[…]-3′) along with a TATA box were inserted into the EcorRI/BamHI sites of plasmid pMCRBlaZ to create plasmid p5×KBBlaZ, which procedure is illustrated in Scheme 1 below. [formula]
Cells were selected for antibiotic resistance with Zeocin for approximately 2 weeks. After the stable population had been expanded to a significant number of cells, it was stimulated with IL-1β and stained with AURORA CCF2 dye, a membrane permeant, intracellularly-trapped, fluorescent substrate. Cells that fluoresced blue (indicating a positive response of the NF-κB/β-lactamase reporter to stimulation by IL-1β) in the stimulated/stained population were then sorted by flow cytometry into a pool. The pool was expanded and stained with CCF2, and then the cells that fluoresced green from this unstimulated population (indicating a low background of the NF-κB/β-lactamase reporter construct) were cloned by flow cytometry after adding 1 cell per well in 96-well plates. Clones were allowed to expand. Each cloned cell line was then examined for fold stimulation after stimulation with IL-1β using a CCF2 reporter assay, and these stimulated cells were compared to unstimulated cells.
Cells: ECV-304 NF-κB β-Lactamase clone 1E8
Inhibitors: Prepared stock solutions of aminosulfonyl derivatives at 10 mM concentration in DMSO;
c) Added 10 μL of B into appropriate well in assay plate (the final concentration of drug is 10 μM), and […]

Structures can show the parent of a compound that is named as a salt. Where two headings read alike, the source gives them in different places.

A word on the inhibition: it is the drop in the measured response relative to a control, in per cent. `CC[C@H](CC[C@@H](C)[C@H]1CC[C@H]2[C@@H]3CCC4C[C@H](OC(=O)NS(=O)(=O)Oc5c(C(C)C)cccc5C(C)C)CC[C@]4(C)[C@H]3CC[C@]12C)C(C)C` (stereo partly drawn) [Example 121, Stigmastan-3-ol, [[2,6-bis(1-methylethyl)phenoxy]sulfonyl]-carbamate, (3α)-]: where the note is “ECV-304, 6 h”, the inhibition at 10 µM was less than 10%.

`CC(C)c1cc(C(C)C)c(CC(=O)NS(=O)(=O)Oc2c(C(C)C)cc(NC(=S)Nc3cc(Cl)cc(Cl)c3)cc2C(C)C)c(C(C)C)c1` [Example 235, [(2,4,6-Triisopropyl-phenyl)-acetyl]-sulfamic acid 4-[3-(3,5-dichloro-phenyl)-thioureido]-2,6-diisopropyl-phenyl ester]: for the setting “ECV-304, 6 h”, the inhibition at 10 µM amounted to 146%.

On to `CC(C)c1cccc(C(C)C)c1NS(=O)(=O)NC(=O)Oc1c(C(C)C)cccc1C(C)C` [Example 4, Carbamic acid, [[[2,6-bis(1-methylethyl)phenyl]amino]sulfonyl]-, 2,6-bis(1-methylethyl)phenyl ester], for which the inhibition at 10 µM is 35.3%.

Turning to `CC(C)c1cc(C(C)C)c(CC(=O)NS(=O)(=O)Oc2c(C(C)C)cc(C(C)(C)C)cc2C(C)C)c(C(C)C)c1` [Example 190, [(2,4,6-Triisopropyl-phenyl)-acetyl]-sulfamic acid 4-tert-butyl-2,6-diisopropyl-phenyl ester], under “ECV-304, 6 h”, the inhibition at 10 µM amounted to 27.6%.

With `Cc1cc(C(C)(C)C)c(OC(=O)NS(=O)(=O)N(C)CCc2ccccn2)c(C(C)(C)C)c1` [Example 42, Carbamic acid, [[methyl[2-(2-pyridinyl)ethyl]amino]sulfonyl]-, 2,6-bis(1,1-dimethylethyl)-4-methylphenyl ester, monohydrochloride], the inhibition at 10 µM was less than 10%.

With `CC(C)c1cc(C(C)C)c(CC(=O)NS(=O)(=O)Oc2c(C(C)C)cc(NC(=O)Nc3ccccc3)cc2C(C)C)c(C(C)C)c1` [Example 218, [(2,4,6-Triisopropyl-phenyl)-acetyl]-sulfamic acid 2,6-diisopropyl-4-(3-phenyl-ureido)-phenyl ester], the inhibition at 10 µM (ECV-304, 6 h) was less than 10%.

Regarding `CC(C)c1cc(C(C)C)c(C(O)C(=O)NS(=O)(=O)Oc2c(C(C)C)cccc2C(C)C)c(C(C)C)c1` (stereo not shown) [Example 162, [Hydroxy-(2,4,6-triisopropyl-phenyl)-acetyl]-sulfamic acid 2,6-diisopropyl-phenyl ester], under “ECV-304, 6 h”, the inhibition at 10 µM worked out at 75.3%.

Turning to `CC(C)c1cccc(C(C)C)c1OS(=O)(=O)NC(=O)C1CCc2ccccc2C1` (stereo not shown) [Example 165, (1,2,3,4-Tetrahydro-naphthalene-2-carbonyl)-sulfamic acid 2,6-diisopropyl-phenyl ester], the inhibition at 10 µM (ECV-304, 6 h) is 28.7%.

Regarding `CC(C)c1cc(C(C)C)c(CC(=O)NS(=O)(=O)Oc2c(C(C)C)cc(NC(=O)CN)cc2C(C)C)c(C(C)C)c1` [Example 200, [(2,4,6-Triisopropyl-phenyl)-acetyl]-sulfamic acid 4-(2-amino-acetylamino)-2,6-diisopropyl-phenyl ester], the inhibition at 10 µM (ECV-304, 6 h) amounted to 72.7%.

`Cc1cc(C(C)C)c(OS(=O)(=O)NC(=O)Cc2c(C(C)C)cc(C(C)C)cc2C(C)C)c(C(C)C)c1` [Example 210, [(2,4,6-Triisopropyl-phenyl)-acetyl]-sulfamic acid 2,6-diisopropyl-4-methyl-phenyl ester]: the inhibition at 10 µM (ECV-304, 6 h) amounted to 52.5%.

Take `COc1cc(OC)c(CC(=O)NS(=O)(=O)Oc2c(C(C)C)cccc2C(C)C)c(OC)c1` [Example 147, [(2,4,6-Trimethoxy-phenyl)-acetyl]-sulfamic acid 2,6-diisopropyl-phenyl ester]: the inhibition at 10 µM (ECV-304, 6 h) is less than 10%.

With `CC(C)c1cc(C(C)C)c(CC(=O)NS(=O)(=O)Oc2c(C(C)C)cc(CO)cc2C(C)C)c(C(C)C)c1` [Example 233, [(2,4,6-Triisopropyl-phenyl)-acetyl]-sulfamic acid 4-hydroxymethyl-2,6-diisopropyl-phenyl ester], the inhibition at 10 µM (ECV-304, 6 h) came out at 76.9%.

In the case of `CC(C)c1cccc(C(C)C)c1OS(=O)(=O)NC(=O)C(c1ccccc1)C1CCCCC1` (stereo not shown) [Example 170, (Cyclohexyl-phenyl-acetyl)-sulfamic acid 2,6-diisopropyl-phenyl ester], the inhibition at 10 µM (ECV-304, 6 h) amounted to 78.6%.

`CC(C)CN(CC(C)C)S(=O)(=O)NC(=O)Nc1c(C(C)C)cccc1C(C)C` [Example 68, Urea, N-[2,6-bis(1-methylethyl)phenyl]-N′-[[bis(2-methylpropyl)amino]-sulfonyl]-]: where the note is “ECV-304, 6 h”, the inhibition at 10 µM came to 34.3%.

For the compound `COc1cc(C(C)C)c(OC(=O)NS(=O)(=O)Oc2c(C(C)C)cccc2C(C)C)c(C(C)C)c1` [Example 123, Carbamic acid, [[2,6-bis(1-methylethyl)phenoxy]sulfonyl]-, 4-methoxy-2,6-bis(1-methylethyl)phenyl ester], the inhibition at 10 µM was less than 10%.

On to `CCC(C)C(C(=O)NS(=O)(=O)Oc1c(C(C)C)cccc1C(C)C)c1ccccc1` (stereo not shown) [Example 167, (3-Methyl-2-phenyl-pentanoyl)-sulfamic acid 2,6-diisopropyl-phenyl ester], for which the inhibition at 10 µM (ECV-304, 6 h) worked out at 40%.

For `COC(=O)NS(=O)(=O)Nc1c(C(C)C)cccc1C(C)C` [Example 54, Carbamic acid, [[[2,6-bis(1-methylethyl)phenyl]amino]sulfonyl]-, methyl ester], the inhibition at 10 µM (ECV-304, 6 h) was less than 10%.

For the compound `Cc1cc(C(C)(C)C)c(OC(=O)NS(=O)(=O)Oc2ccccc2)c(C(C)(C)C)c1` [Example 48, Carbamic acid, (phenoxysulfonyl)-, 2,6-bis(1,1-dimethylethyl)-4-methylphenyl ester], the inhibition at 10 µM was 13.8%.

Consider `CC(C)c1cc(C(C)C)c(CC(=O)NS(=O)(=O)Oc2c(C(C)C)cc(C#N)cc2C(C)C)c(C(C)C)c1` [Example 212, [(2,4,6-Triisopropyl-phenyl)-acetyl]-sulfamic acid 4-cyano-2,6-diisopropyl-phenyl ester], for which the inhibition at 10 µM (ECV-304, 6 h) is 60.2%.

`CCN(CC)S(=O)(=O)NC(=O)Nc1c(C(C)C)cccc1C(C)C` [Example 44, Urea, N-[2,6-bis(1-methylethyl)phenyl]-N′-[(diethylamino)sulfonyl]-]: under “ECV-304, 6 h”, the inhibition at 10 µM is less than 10%.

On to `CCCCCCCCCCCCCCCCC(C)S(=O)(=O)NC(=O)Nc1c(C(C)C)cccc1C(C)C` (stereo not shown) [Example 246, N-[2,6-bis(1-methylethyl)phenyl]-N′-(2-octadecylsulfonyl)urea], for which, under “ECV-304, 6 h”, the inhibition at 10 µM was less than 10%.

For `CC(C)c1cccc(C(C)C)c1NC(=O)NS(=O)(=O)N1CCCC1` [Example 70, Urea, N-[2,6-bis(1-methylethyl)phenyl]-N′-(1-pyrrolidinylsulfonyl)-], under “ECV-304, 6 h”, the inhibition at 10 µM is less than 10%.

Regarding `CC(C)c1cccc(C(C)C)c1NC(=O)NS(=O)(=O)N(C1CCCCC1)C1CCCCC1` [Example 78, Urea, N-[2,6-bis(1-methylethyl)phenyl]-N′-[(dicyclohexylamino)-sulfonyl]-], the inhibition at 10 µM (ECV-304, 6 h) is 40.9%.

As to `CC(C)c1cc(C(C)C)c(CC(=O)NS(=O)(=O)Oc2c(C(C)C)cc(N)cc2C(C)C)c(C(C)C)c1` [Example 187, [(2,4,6-Triisopropyl-phenyl)-acetyl]-sulfamic acid 4-amino-2,6-diisopropyl-phenyl ester], for the setting “ECV-304, 6 h”, the inhibition at 10 µM was found to be 57.8%.

In the case of `CCCCCCN(CCCCCC)S(=O)(=O)NC(=O)Nc1c(C(C)C)cccc1C(C)C` [Example 36, N-[2,6-bis(1-methylethyl)phenyl]-N′-[(dihexylamino)sulfonyl]-urea], the inhibition at 10 µM (ECV-304, 6 h) was determined as 51.2%.
